The results in this text go back to patent publication US7884114B2, “Compounds” (Glaxo Group Limited, priority 2007, dated 2011).

Each structure is given as a SMILES string. Where a name gives a salt, the structure may show the parent alone. Read-outs that look alike come from different tables or passages of the source.

For assay [1], the target named is T1, human H1 receptor (Homo sapiens, UniProt P35367).
T1 construct: expressed in transfected cells
The assay is described as follows: Histamine H1 functional antagonist assay: antagonist duration after washout. The settings on record: at one or more time points. In kind it is cell-based. As to the method:
The human H1 receptor is cloned using known procedures described in the literature [Biochem. Biophys. Res. Commun., 201(2):894 (1994)]. Chinese hamster ovary (CHO) cells stably expressing the human H1 receptor are generated according to known procedures described in the literature [Br. J. Pharmacol., 117(6):1071 (1996)]. […] Following the 30 min antagonist incubation period, the cells are washed two or three times with 200 μl of PBS and then 100 μl Tyrodes buffer is added to each well to initiate antagonist dissociation. […] After this period, the cells are challenged with histamine in the FLIPR™ as described above. […] The decrease in receptor occupancy over time approximates to a straight line and is analysed by linear regression. The slope of this straight line fit is used as an index of the dissociation rate of the antagonist. The dose ratios for antagonist treated cells and for antagonist treated and washed cells at each time point are used to calculate a relative dose ratio (rel DR) which is also used as an index of antagonist duration. Antagonists with long duration of action produce rel DR values close to 1, and antagonists with short duration of action produce rel DR values that approaches the dose ratio value obtained for antagonist treatment alone.

In assay [2] the target is T1, human H1 receptor. The assay is described as follows: Histamine H1 functional antagonist assay (FLIPR): antagonist pA2. The assay is classed as cell-based. Here is the method: (§1) The human H1 receptor is cloned using known procedures described in the literature [Biochem. Biophys. Res. Commun., 201(2):894 (1994)]. Chinese hamster ovary (CHO) cells stably expressing the human H1 receptor are generated according to known procedures described in the literature [Br. J. Pharmacol., 117(6):1071 (1996)].
Histamine H1 Functional Antagonist Assay: Determination of Antagonist pA2 and Duration
The histamine H1 receptor expressing CHO cells are seeded into non-coated black-walled clear bottom 96-well tissue culture plates as described above.
Following overnight culture, growth medium is removed from each well, washed with 200 μl PBS and is replaced with 50 μl loading dye (250 μM Brilliant Black, 1 μM Fluo-4 diluted in Tyrodes buffer+probenecid (145 mM NaCl, 2.5 mM KCl, 10 mM HEPES, 10 mM D-glucose, 1.2 mM MgCl2, 1.5 mM CaCl2, 2.5 mM probenecid, pH adjusted to 7.40 with NaOH 1.0 M)). Cells are incubated for 45 min at 37° C. The loading buffer is removed and the cells are washed as above, and 90 μl of Tyrodes buffer+probenecid is added to each well. 10 μl of test compound, diluted to the required concentration in Tyrodes buffer+probenecid (or 10 μl Tyrodes buffer+probenecid as a control) is added to each well and the plate is incubated for 30 min at 37° C., 5% CO2.
The plates are then placed into a FLIPR™ (Molecular Devices, UK) to monitor cell fluorescence (λex=488 nm, λEM=540 nm) in the manner described in Sullivan et al., (In: Lambert D G (ed.), Calcium Signaling Protocols, New Jersey: Humana Press, 1999, 125-136) before and after the addition of 50 μl histamine over a concentration range of 1 mM-0.1 nM. […] The antagonist pA2 is calculated using the following standard equation: pA2=log(DR−1)−log [ B] where DR=dose ratio, defined as EC50antagonist-treated/EC50control and [B]=concentration of antagonist.

Assay [3] has as its target T1, human H1 receptor. The assay is described as follows: Histamine H1 functional antagonist assay (FLIPR): functional pKi. In kind it is cell-based. The conditions noted are these: CHO cells expressing human H1 receptor, histamine EC80, read-out: average pKi (pKb) at H1 (converted). Here is the method:
as §1
10 μl of test compound, diluted to the required concentration in Tyrodes buffer+probenecid (or 10 μl Tyrodes buffer+probenecid as a control) is added to each well and the plate is incubated for 30 min at 37° C., 5% CO2.

Assay [4] has as its system histamine-induced nasal congestion. The assay is described as follows: Intranasal challenge method: whole body plethysmography, histamine-induced nasal congestion. The assay is classed as in vivo, Dunkin-Hartley guinea pigs. The conditions noted are these: for inhibition of response to histamine challenge: dosed intranasally at 1 mg/ml. As to the method: Intranasal Challenge Method: Whole Body Plethysmography
Female Dunkin-Hartley guinea pigs 150-250 g are sensitised twice daily for 5 days (week 1) with ovalbumin (OVA) and aluminium hydroxide (Al(OH)3 or Alum) in physiological saline, 25 μl/nostril. Solution is made up at 20 μg/ml OVA, 180 mg/ml Alum. During weeks 2 and 3 animals receive 25 μl/nostril of OVA (5 mg/ml) once daily. During Week 4 guinea pigs will be entered into study but are continually sensitized as per weeks 2 and 3 until the day before dosing with compound or vehicle.
(b) Compound Vehicle Pretreatment
Pretreatment with test compound is performed at various times prior to histamine challenge. Efficacy dose-response curves are determined 1 hr and/or 3 hr after dosing whereas duration of action may be studied up to 7 days post dose (for example, at 24 hours). Test compounds are formulated as solutions in 0.9% sterile saline or suspensions in 0.9% sterile saline/tween80.
Guinea pigs were anaesthetised with isoflurane (5%, 2-31/min O2), placed in a supine position, and 25 μl of test compound or vehicle dosed into each nostril using a Gilson pipette. After dosing, animals remain supine for at least 30 seconds (e.g. 60 seconds) during recovery from anaesthesia.
(c) Histamine Challenge Protocol
G. & Gelfand, E. W. (1997), Noninvasive measurement of airway responsiveness in allergic mice using barometric plethysmography., Am. J. Respir. Crit. Care Med., 156, 766-775.
After the stipulated pre-dose time has been reached, guinea pigs are re-anaesthetised with isoflurane and dosed with either 10 mM or 15 mM histamine or phosphate-buffered saline (PBS), (25 μl per nostril). […] These recordings are summed to give a cumulative AUC over 40 mins post histamine challenge for each animal. Data are analysed using ANOVA with post-hoc Fishers LSD test (general linear models, Statistica®) and finally Hochberg adjustment. Inhibition of histamine-induced congestion is determined by statistically significant differences between the mean responses of compound pre-treated groups compared to the vehicle pre-treated, histamine-challenged group.

[5] abbreviates: CHO cells expressing H1 receptor, FLIPR, histamine concentration response curves, read-out: average pA2 (converted).

T1 sequence (P35367 whole entry): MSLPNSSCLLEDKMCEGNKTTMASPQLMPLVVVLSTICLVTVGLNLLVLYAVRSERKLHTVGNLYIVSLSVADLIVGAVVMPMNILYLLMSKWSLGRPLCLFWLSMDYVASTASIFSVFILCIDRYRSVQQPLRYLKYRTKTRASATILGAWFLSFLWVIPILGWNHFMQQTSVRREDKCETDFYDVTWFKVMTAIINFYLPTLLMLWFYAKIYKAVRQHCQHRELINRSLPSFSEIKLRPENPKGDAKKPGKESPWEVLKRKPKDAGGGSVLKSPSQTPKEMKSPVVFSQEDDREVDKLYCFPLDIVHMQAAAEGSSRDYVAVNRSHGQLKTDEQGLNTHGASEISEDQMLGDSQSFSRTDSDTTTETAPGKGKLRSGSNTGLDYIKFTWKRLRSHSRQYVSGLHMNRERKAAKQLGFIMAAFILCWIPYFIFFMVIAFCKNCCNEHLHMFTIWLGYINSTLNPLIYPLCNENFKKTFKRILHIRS

In the case of `CCCCc1cc(OC2CCN(CCCCNS(=O)(=O)CC(C)C)CC2)c2ncccc2c1` [Example 26, N-(4-{4-[(6-Butyl-8-quinolinyl)oxy]-1-piperidinyl}butyl)-2-methyl-1-propanesulfonamide, dihydrochloride salt], the “duration of action compared with azelastine” value on human H1 receptor [1] was “longer duration of action than azelastine”.

With `CCCCc1cc(O[C@@H]2CCN(CCCS(=O)(=O)C(C)(C)C)C2)c2ncccc2c1` [Example 12, 6-Butyl-8-[((3R)-1-{3-[(1,1-dimethylethyl)sulfonyl]propyl}-3-pyrrolidinyl)oxy]quinoline, dihydrochloride salt], the Kb on human H1 receptor [2] (setting [5]) was under 0.1 µM.

`CCCCc1cc(OC2CCN(CCCNS(=O)(=O)CCC)CC2)c2ncccc2c1` [Example 18, N-(3-{4-[(6-Butyl-8-quinolinyl)oxy]-1-piperidinyl}propyl)-1-propanesulfonamide, dihydrochloride salt]: at human H1 receptor [2] (setting [5]), the Kb was under 0.001 µM.

On to `CCCCc1cc(OC2CCN(CCS(=O)(=O)C(C)(C)C)CC2)c2ncccc2c1` [Example 2, 6-Butyl-8-[(1-{2-[(1,1-dimethylethyl)sulfonyl]ethyl}-4-piperidinyl)oxy]quinoline, dihydrochloride salt], for which the Kb at human H1 receptor [2] (setting [5]) is under 0.001 µM.

For the compound `CCCCc1cc(OC2CCN(C3CCS(=O)(=O)C3)CC2)c2ncccc2c1` (stereo not drawn) [Example 13, 6-Butyl-8-{[1-(1,1-dioxidotetrahydro-3-thienyl)-4-piperidinyl]oxy}quinoline], the Ki at human H1 receptor [3] is under 0.1 µM. Also, the Kb on human H1 receptor [2] (setting [5]) is under 0.1 µM.

Regarding `CCCCc1cc(OC2CCN(CCNS(=O)(=O)CC(C)C)CC2)c2ncccc2c1` [Example 15, N-(2-{4-[(6-Butyl-8-quinolinyl)oxy]-1-piperidinyl}ethyl)-2-methyl-1-propanesulfonamide, dihydrochloride salt], the Ki at human H1 receptor [3] was under 0.1 µM. On human H1 receptor [2] (setting [5]), the Kb was under 0.01 µM.

In the case of `CN1CCCC(n2nc(Cc3ccc(Cl)cc3)c3ccccc3c2=O)CC1` (stereo not drawn) [azelastine, reference compound], the “duration of action in intranasal challenge model” value in assay [4] (administered at the same concentration (1 mg/ml intranasally)) is reported as “failed to show a similar duration of action”.

As to `CCCCc1cc(OC2CCN(CCCS(C)(=O)=O)CC2)c2ncccc2c1` [Example 3, 6-Butyl-8-({1-[3-(methylsulfonyl)propyl]-4-piperidinyl}oxy)quinoline, dihydrochloride salt], at human H1 receptor [2] (setting [5]), the Kb is under 0.01 µM.

`CCCCc1cc(OC2CCN(CCCNC(=O)NCCC)CC2)c2ncccc2c1` [Example 36, N-(3-{4-[(6-Butyl-8-quinolinyl)oxy]-1-piperidinyl}propyl)-N′-propylurea, dihydrochloride salt] returned a Kb on human H1 receptor [2] of under 0.001 µM.

With `CCCCc1cc(OC2CCN(CCCCCNS(C)(=O)=O)CC2)c2ncccc2c1` [Example 31, N-(5-{4-[(6-Butyl-8-quinolinyl)oxy]-1-piperidinyl}pentyl)methanesulfonamide, dihydrochloride salt], the Kb at human H1 receptor [2] (setting [5]) is under 0.001 µM.

Take `CCCCc1cc(OC2CCN(CCCNS(=O)(=O)C(C)C)CC2)c2ncccc2c1` [Example 19, N-(3-{4-[(6-Butyl-8-quinolinyl)oxy]-1-piperidinyl}propyl)-2-propanesulfonamide, dihydrochloride salt]: the Kb on human H1 receptor [2] (setting [5]) was under 0.001 µM.

With `CCCCc1cc(OC2CCN(CCCS(=O)(=O)C3CCCC3)CC2)c2ncccc2c1` [Example 8, 6-Butyl-8-({1-[3-(cyclopentylsulfonyl)propyl]-4-piperidinyl}oxy)quinoline, formate salt (1:1)], the Kb at human H1 receptor [2] is under 0.1 µM.

For the compound `CCCCc1cc(OC2CCN(CCCCCNS(=O)(=O)CC)CC2)c2ncccc2c1` [Example 32, N-(5-{4-[(6-Butyl-8-quinolinyl)oxy]-1-piperidinyl}pentyl)ethanesulfonamide, dihydrochloride salt], the Kb on human H1 receptor [2] (setting [5]) was under 0.001 µM.

Turning to `CCCCCc1cc(OC2CCN(CCCS(=O)(=O)CC)CC2)c2ncccc2c1` [Example 11, 8-({1-[3-(Ethylsulfonyl)propyl]-4-piperidinyl}oxy)-6-pentylquinoline, dihydrochloride salt], the Kb at human H1 receptor [2] (setting [5]) was under 0.001 µM.

Consider `CCCCc1cc(OC2CCN(CCCCNS(=O)(=O)CC3CCCCC3)CC2)c2ncccc2c1` [Example 28, N-(4-{4-[(6-Butyl-8-quinolinyl)oxy]-1-piperidinyl}butyl)-1-cyclohexyl methane sulfonamide, dihydrochloride salt], for which the Kb at human H1 receptor [2] (setting [5]) is under 0.01 µM.

Turning to `CCCCc1cc(OC2CCN(CCCCNS(=O)(=O)CC)CC2)c2ncccc2c1.Cl.Cl` [Example 23B, N-(4-{4-[(6-Butyl-8-quinolinyl)oxy]-1-piperidinyl}butyl)ethanesulfonamide, dihydrochloride salt], the “inhibition of response to histamine challenge” value in assay [4] (3 hr before histamine challenge) and in assay [4] (24 hr before histamine challenge) was “significantly (p<0.05) inhibited the response” each time.

On to `CCCCc1cc(OC2CCN(CCNS(=O)(=O)c3ccccc3)CC2)c2ncccc2c1` [Example 16, N-(2-{4-[(6-Butyl-8-quinolinyl)oxy]-1-piperidinyl}ethyl)benzenesulfonamide, dihydrochloride salt], for which the Ki at human H1 receptor [3] is under 0.1 µM. Besides, on human H1 receptor [2] (setting [5]), the Kb was under 0.01 µM.
